Usually IC50 stands for the midpoint of a concentration-inhibition curve. Higher therefore signals weaker potency in that assay.

For this experiment, the target named is T1, TβR (GST-ALK5) (Homo sapiens, UniProt P36897).
T1 sequence (P36897 34-503): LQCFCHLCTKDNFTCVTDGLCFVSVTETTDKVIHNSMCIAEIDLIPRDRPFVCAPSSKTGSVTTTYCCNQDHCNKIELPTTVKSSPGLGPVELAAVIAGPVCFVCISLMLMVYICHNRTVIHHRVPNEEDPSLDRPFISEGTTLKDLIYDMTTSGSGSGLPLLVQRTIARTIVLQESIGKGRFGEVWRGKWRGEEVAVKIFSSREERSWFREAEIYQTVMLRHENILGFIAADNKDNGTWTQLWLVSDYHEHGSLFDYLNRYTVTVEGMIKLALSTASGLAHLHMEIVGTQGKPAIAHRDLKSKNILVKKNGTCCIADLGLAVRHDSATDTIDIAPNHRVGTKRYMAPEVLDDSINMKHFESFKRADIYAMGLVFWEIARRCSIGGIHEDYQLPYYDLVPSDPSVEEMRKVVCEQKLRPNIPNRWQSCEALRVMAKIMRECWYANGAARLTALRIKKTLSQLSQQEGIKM
In words: In-vitro (enzyme) flashplate kinase assay, TβR activity. The experiment is classed as biochemical. Particulars: GST-ALK5, GST-SMAD2 substrate, 3 mM ATP. On the procedure:
In-Vitro (Enzyme) Assay for Determination of the Efficacy of Inhibitors of the Inhibition of TGF-Beta-Mediated Effects
The kinase assay was carried out as 384-well flashplate assay. […] The reaction was stopped using 25 μl of 200 mM EDTA solution, filtered with suction at room temperature after 30 min, and the wells were washed with 3 times 100 μl of 0.9% NaCl solution. Radioactivity was measured in the TopCount. The IC50 values were calculated using RS1. Above and below, all temperatures were indicated in ° C.
`Fc1ccc(Cl)cc1-c1cc(Sc2ccncc2)c2ccccc2n1` [compound 011] registered an IC50 of 1000 to 10000 nM. With `CN1CCN(C(=O)Nc2cnccc2N(C(=O)N2CCN(C)CC2)c2cc(-c3cc(Cl)ccc3F)nc3ccccc23)CC1` [compound 061], the 50% inhibitory concentration (IC50) is > 10000 nM. The same measure for `CN1CCN(c2cc(Nc3cc(-c4cc(Cl)ccc4F)nc4ccccc34)ncn2)CC1` [compound 103]: > 10000 nM; for `Fc1ccc(Cl)cc1-c1cc(Nc2cnncc2Nc2cc(-c3cc(Cl)ccc3F)nc3ccccc23)c2ccccc2n1` [compound 087]: > 10000 nM. The same measure for `Clc1ccc(-c2cc(Nc3ccncc3)c3ccccc3n2)cc1Cl` [compound 108]: > 10000 nM. The same measure for `c1ccc2c(Nc3ccncc3)cc(C3CCCCC3)nc2c1` [compound 047]: 1000 to 10000 nM; for `CC(=O)Nc1cc(Nc2cc(-c3cc(Cl)ccc3F)nc3ccccc23)ccn1` [compound 107]: < 500 nM. For `NCC(=O)Nc1cc(Nc2cc(-c3cc(Cl)ccc3F)nc3ccccc23)ccn1` [compound 115], the IC50 was 1000 to 10000 nM.

As for `Fc1ccccc1-c1cc(Nc2ccncn2)c2ccccc2n1` [compound 045], the IC50 is < 500 nM. As for `O=C(Nc1cc(-c2cc(Cl)ccc2F)nc2ccccc12)c1ccncc1` [compound 009], the IC50 was 1000 to 10000 nM. Regarding `Oc1ccccc1-c1cc(Nc2ccncc2)c2ccccc2n1` [compound 099], the IC50 is > 10000 nM. The same measure for `Fc1ccc(Cl)cc1-c1cc(Nc2ccccn2)c2ccccc2n1` [compound 005]: > 10000 nM; for `Nc1cc(N(c2cc(-c3cc(Cl)ccc3F)nc3ccccc23)c2cc(-c3cc(Cl)ccc3F)nc3ccccc23)ncn1` [compound 037]: 1000 to 10000 nM; for `Fc1ccc(Cl)cc1-c1cc(Nc2ccnc(N(c3ccnc(Cl)c3)c3cc(-c4cc(Cl)ccc4F)nc4ccccc34)c2)c2ccccc2n1` [compound 022]: 1000 to 10000 nM. For `Nc1ccncc1Nc1cc(-c2cc(Cl)ccc2F)nc2ccccc12` [compound 029], the half-maximal inhibitory concentration (IC50) was > 10000 nM. As to `COc1ccc2c(Nc3cc(-c4cc(Cl)ccc4F)nc4ccccc34)ccnc2c1` [compound 075], the 50% inhibitory concentration (IC50) was < 500 nM. The same measure for `c1ccc(-c2cc(Nc3ccncc3)c3ccccc3n2)nc1` [compound 057]: < 500 nM; for `O=C(O)CCNc1cnccc1Nc1cc(-c2cc(Cl)ccc2F)nc2ccccc12` [compound 071]: > 10000 nM. The same measure for `Oc1ccc2c(Nc3cc(-c4cc(Cl)ccc4F)nc4ccccc34)ccnc2c1` [compound 098]: 500 to 1000 nM.

`Fc1ccc(Cl)cc1-c1cc(N(c2ccncn2)c2cc(-c3cc(Cl)ccc3F)nc3ccccc23)c2ccccc2n1` [compound 017] returned a concentration for half-maximal inhibition (IC50) of 1000 to 10000 nM.

For the compound `Fc1ccc(Cl)cc1-c1cc(Nc2ccnc3ccccc23)c2ccccc2n1` [compound 013], the IC50 is < 500 nM. Turning to `Nc1cnncc1Nc1cc(-c2cc(Cl)ccc2F)nc2ccccc12` [compound 092], the IC50 was 1000 to 10000 nM. The same measure for `Clc1ccccc1-c1cc(Nc2ccncc2)c2ccccc2n1` [compound 050]: < 500 nM; for `CN1CCN(C(=O)c2cnccc2Nc2cc(-c3cc(Cl)ccc3F)nc3ccccc23)CC1` [compound 126]: 1000 to 10000 nM. On to `CC(=O)OCC(=O)Nc1cnccc1Nc1cc(-c2cc(Cl)ccc2F)nc2ccccc12` [compound 085], for which the half-maximal inhibitory concentration (IC50) was < 500 nM. The same measure for `CN(C)c1cccc(-c2cc(Nc3ccncn3)c3ccccc3n2)c1` [compound 081]: > 10000 nM; for `CC(C)(C)Sc1cnccc1Nc1cc(-c2cc(Cl)ccc2F)nc2ccccc12` [compound 094]: 500 to 1000 nM; for `OCc1cnccc1Nc1cc(-c2cc(Cl)ccc2F)nc2ccccc12` [compound 120]: < 500 nM.

In the case of `Fc1ccccc1-c1cc(Nc2ccncc2)c2ccccc2n1` [compound 044], the 50% inhibitory concentration (IC50) was < 500 nM.

`CC(C)(C)C(=O)Nc1cc(Nc2cc(-c3cc(Cl)ccc3F)nc3ccccc23)ccn1` [compound 111]: the half-inhibitory concentration (IC50) was 1000 to 10000 nM. Turning to `CCOc1cc(Nc2cc(-c3cc(Cl)ccc3F)nc3ccccc23)ccn1` [compound 101], the half-maximal inhibitory concentration (IC50) is > 10000 nM. The same measure for `COCC(=O)Nc1cnccc1Nc1cc(-c2cc(Cl)ccc2F)nc2ccccc12` [compound 086]: < 500 nM; for `CN(C)CC(=O)Nc1cnccc1Nc1cc(-c2cc(Cl)ccc2F)nc2ccccc12` [compound 054]: < 500 nM; for `Fc1ccc(Cl)cc1-c1cc(-n2ccc3cnccc32)c2ccccc2n1` [compound 014]: < 500 nM. The same measure for `Cc1nc2cnccc2n1-c1cc(-c2cc(Cl)ccc2F)nc2ccccc12` [compound 026]: 500 to 1000 nM; for `CCC(=O)Nc1cc(Nc2cc(-c3cc(Cl)ccc3F)nc3ccccc23)ccn1` [compound 113]: < 500 nM; for `O=S(=O)(O)Nc1cnccc1Nc1cc(-c2cc(Cl)ccc2F)nc2ccccc12` [compound 041]: 1000 to 10000 nM. The same measure for `Nc1cnccc1Nc1cc(-c2ccccc2F)nc2ccccc12` [compound 074, N*4*-[2-(2-fluoro-phenyl)-quinolin-4-yl]-pyridine-3,4-diamine]: 1000 to 10000 nM; for `Fc1ccc(Cl)cc1-c1cc(Nc2ccnc3[nH]ccc23)c2ccccc2n1` [compound 032]: > 10000 nM; for `Fc1ccc(Cl)cc1-c1cc(Nc2cccnc2)c2ccccc2n1` [compound 012]: > 10000 nM. Regarding `O=S1(=O)Nc2cnccc2N1c1cc(-c2cc(Cl)ccc2F)nc2ccccc12` [compound 025], the IC50 was < 500 nM. `CN(C)CCCNc1cc(Nc2cc(-c3ccccc3F)nc3ccccc23)ccn1` [compound 121]: the half-inhibitory concentration (IC50) was < 500 nM. The same measure for `Fc1ccc(Cl)cc1-c1cc(Nc2ccncc2C(F)(F)F)c2ccccc2n1` [compound 008]: < 500 nM; for `Nc1ccnc(Nc2cc(-c3cc(Cl)ccc3F)nc3ccccc23)c1` [compound 035]: > 10000 nM; for `CN(C)CCNC(=O)c1cnccc1Nc1cc(-c2cc(Cl)ccc2F)nc2ccccc12` [compound 123]: < 500 nM. The same measure for `CN(C)c1cccc(-c2cc(Nc3ccncc3)c3ccccc3n2)c1` [compound 079]: 1000 to 10000 nM; for `Fc1ccc(Cl)cc1-c1cc(Nc2ccnc3cc(C(F)(F)F)ccc23)c2ccccc2n1` [compound 069]: < 500 nM; for `Nc1nc(N)nc(Nc2cc(-c3cc(Cl)ccc3F)nc3ccccc23)n1` [compound 117]: 1000 to 10000 nM. Consider `c1ccc(-c2cc(Nc3ccncc3)c3ccccc3n2)cc1` [compound 073], for which the IC50 was < 500 nM. The same measure for `CNC(=O)c1cnccc1Nc1cc(-c2cc(Cl)ccc2F)nc2ccccc12` [compound 119]: < 500 nM; for `Nc1ncnc(Nc2cc(-c3cc(C(F)(F)F)ccc3F)nc3ccccc23)n1` [compound 118]: < 500 nM.

As to `Cc1cncc(-c2cc(Nc3ccncc3)c3ccccc3n2)c1` [compound 066], the IC50 was > 10000 nM. Consider `COc1ccccc1-c1cc(Nc2ccncc2)c2ccccc2n1` [compound 052], for which the IC50 lay within 1000 to 10000 nM. The same measure for `FC(F)(F)c1cccc(-c2cc(Nc3ccncc3)c3ccccc3n2)c1` [compound 051]: < 500 nM; for `Nc1cc(Nc2cc(-c3cc(Cl)ccc3F)nc3ccccc23)ccn1` [compound 105]: < 500 nM. The same measure for `Fc1ccc(Br)cc1-c1cc(Nc2ccncc2)c2ccccc2n1` [compound 084]: < 500 nM; for `N#Cc1cccc(-c2cc(Nc3ccncc3)c3ccccc3n2)c1` [compound 055]: 1000 to 10000 nM; for `CN(C)CCCc1nc2cnccc2n1-c1cc(-c2cc(Cl)ccc2F)nc2ccccc12` [compound 091]: 1000 to 10000 nM.

For the origin of these results see patent US8987301B2, “Heteroarylaminoquinolines as TGF-beta receptor kinase inhibitors” (Merck Patent GmbH, priority 2009, dated 2015).
